The record followed here is patent US7902226B2, “Dehalogeno-compounds” (Daiichi Pharmaceutical Co., Ltd., priority 2000, dated 2011).

The structures appear in SMILES notation.

Series [1] can be described thus: Urinary excretion after oral administration (excretion test groups). The class given is in vivo. The settings on record: fasting rats, 20 mg/kg, urine 0-24 h. How it is done:
An administration solution was prepared by dissolving a tested compound to a concentration of 2 mg/ml (as free compound) in distilled water, and using a 2.5 ml disposable syringe or a metal oral probe, the solution was orally administered at a dose of 20 mg/kg to fasting rats (Crj: CD IGS; male; 7-week-old; Charles River Japan, Inc.). […]
Determination of drug concentrations in liquid samples were quantified by an agar well method bioassay using the B. subtilis ATCC6051 strain as the test organism. […] After addition of the sample, the plate medium was set still for 1 hour at 4° C. to perform preliminary dispersion and then culturing at 37° C. was performed for approximately 18 hours, and the inhibition ring diameters were measured using CA-400 (Dainippon Seiki). The concentrations of the test samples were measured using a calibration curve determined by second-order regression from the logarithmic values of the drug concentration of the calibration curve serial dilutions and the inhibition ring diameters.
The urinary excretion rate (%) was determined from the amount (μg) of drug administered, amount (ml) of urine (or washing solution), and concentration (μ/ml) in urine (or washing solution): [(Urinary excretion rate]=100×([Amount of urine]×[Concentration in urine])/[Amount of drug administered] Method 3: Calculation of Pharmacokinetic Parameters

The next series relates to bone marrow of mice. Kind of series: Micronucleus test in bone marrow of mice. The class given is in vivo. Conditions: Slc:ddY male mice, 24 hours after administration. The protocol: For the compound described as Example 1 of this invention, the micronucleus test in bone marrow of mice was performed by the following method.
Mice groups, each consisting of five, six-week-old, Slc:ddY male mice, were used. The compound of this invention described as Example 1 and 7-[3-(R)-(1-aminocyclopropyl)pyrrolidin-1-yl]-6-fluoro-1-[2-(S)-fluoro-1-(R)-cyclopropyl]-8-methyl-1,4-dihydro-4-oxoquinoline-3-carboxylic acid (Reference drug 1) described in PCT/JP96/00208 were dissolved in and diluted with 0.1 mol/l NaOH/saline solution. The 0.1 mol/l NaOH/saline solvent was used as a control, and as a positive Reference drug, a drug solution, prepared by dissolving and diluting cyclophosphamide (CP) in saline solution, was used. All drug solutions were disinfected by filtration through Mylex GS 0.22 μm filters. With each drug solution, a single intravenous dose of 10 ml/kg was administered at an administration rate of 0.2 ml/min. 24 hours after administration, […] were collected from the femur bone, the smear preparations were prepared, and these were dyed with […].

For the compound `Cc1c(N2CC[C@@H](C3(N)CC3)C2)ccc2c(=O)c(C(=O)O)cn([C@@H]3C[C@@H]3F)c12` [Example 1, 7-[3-(R)-(1-aminocyclopropyl)pyrrolidin-1-yl]-1-[2-(S)-fluoro-1-(R)-cyclopropyl]-1,4-dihydro-8-methyl-4-oxoquinoline-3-carboxylic acid], in series [1], the “Urinary recovery ratio (per dose) 0-24 h” value worked out at 8.1%. Besides, the “micronucleus induction, judgment result” value in the series with bone marrow of mice (single intravenous dose, 25, 50, and 100 mg/kg administration groups, versus control) was “negative”.
On to `Cc1c(N2CC[C@@H](C3(N)CC3)C2)c(F)cc2c(=O)c(C(=O)O)cn([C@@H]3C[C@@H]3F)c12` [Reference drug 1, 7-[3-(R)-(1-aminocyclopropyl)pyrrolidin-1-yl]-6-fluoro-1-[2-(S)-fluoro-1-(R)-cyclopropyl]-8-methyl-1,4-dihydro-4-oxoquinoline-3-carboxylic acid, reference compound], for which, in series [1], the “Urinary recovery ratio (per dose) 0-24 h” value is listed as 1.8%. Further, the “micronucleus induction in comparison to the control” value with bone marrow of mice (single intravenous dose, 50 and 100 mg/kg administration groups) was “clearly seen”.
